For the assay, the target named is T1, recombinant GisA, SAUSA300_0200 (Staphylococcus aureus, UniProt A0A0H2XI71).
T1 construct: His-tagged, pET28b, purified from E. coli slyD mutant by Ni-NTA; ATPase subunit alone
T1 sequence (A0A0H2XI71 1-530): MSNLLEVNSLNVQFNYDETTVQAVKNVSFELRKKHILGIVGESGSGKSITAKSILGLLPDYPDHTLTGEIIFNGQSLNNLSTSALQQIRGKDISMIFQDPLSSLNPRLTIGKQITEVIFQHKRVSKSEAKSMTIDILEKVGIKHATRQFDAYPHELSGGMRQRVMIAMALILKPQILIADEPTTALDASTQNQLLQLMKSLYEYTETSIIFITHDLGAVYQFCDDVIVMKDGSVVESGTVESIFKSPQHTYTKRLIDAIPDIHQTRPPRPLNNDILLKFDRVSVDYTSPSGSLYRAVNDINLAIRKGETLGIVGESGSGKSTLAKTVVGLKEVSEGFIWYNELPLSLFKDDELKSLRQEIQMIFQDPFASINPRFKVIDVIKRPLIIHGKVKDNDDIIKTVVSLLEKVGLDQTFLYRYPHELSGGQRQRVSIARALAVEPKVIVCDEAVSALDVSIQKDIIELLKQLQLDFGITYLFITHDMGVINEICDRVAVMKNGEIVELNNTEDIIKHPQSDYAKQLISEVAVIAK
As to the kind of experiment: ATP hydrolysis assay. Format: biochemical. As to conditions: GisA alone; details only in supplement.

This is an account of results in PMC10355420, “The glutathione import system satisfies the Staphylococcus aureus nutrient sulfur requirement and promotes interspecies competition” (PLOS Genetics, 2023).

In the case of `Nc1ncnc2c1ncn2[C@@H]1O[C@H](COP(=O)(O)OP(=O)(O)OP(=O)(O)O)[C@@H](O)[C@H]1O` [ATP], the ATP hydrolysis assay result was “recombinant GisA purified from Escherichia coli exhibits ATP hydrolysis activity”.
